{"source": "patent US20260224482A1", "about": "“USE OF OXIDATIVE PRECURSORS IN POULTRY FARMING” (AGA NANOTECH LTD, priority 2023, published 2026)", "key": {"[1]": {"test_system": "Ross 308 male day-old chickens", "test": "In-water PAA in chickens: performance and safety", "assay_type": "in vivo", "method": "(§1) A total of 96 Ross 308 male day-old chickens were used during the trial duration (randomized block design with 2 rooms, 12 pens per room, 4 birds per pen and 4 pens per level of inclusion), whilst PAA treatment was administered during the last week. Six different PAA levels of inclusion were tested through in-water daily administration of SP and TAED precursors. Possible PAA effect on body weight gain (BWG), FCR (feed conversion ratio), feed/water intake and BN (bacterial number) were assessed through fitting linear mixed model (i.e. treatment as fixed effect and hierarchy of room/pen/bird when possible as random effect). Longitudinal data were used when repeated measures were taken. Total bacterial number in DNA extracted from crop, jejunum and caecal content was calculated through qPCR targeting 16S rRNA gene (V3 region). Study design and protocol were approved by SRUC Animal Welfare and Review Body (POU AE 20-2019)."}, "[2]": {"test_system": "total bacterial number in crop content", "test": "Total bacterial number by qPCR targeting 16S rRNA gene", "assay_type": "in vivo, chickens", "conditions": "in-water for one week via SP and TAED precursors; P=0.02", "method": "as §1"}}, "note": "“Also recorded” adds a separate entry of the source.", "data": [{"smiles": "CC(=O)OO", "note": "[PAA, peracetic acid]", "values": [{"measurement": "effect on BWG from D7 to D14", "setting": "[1]; PAA administered at 40 ppm, P=0.05", "value": "most evident effect"}, {"measurement": "adverse effects", "setting": "[1]; PAA in-water administration", "value": "no adverse effects"}, {"measurement": "bird mortality", "setting": "[1]; in-water PAA up to 50 ppm", "value": "0 ^0/0"}, {"measurement": "BWG during treatment", "setting": "[1]; in-water for one week via SP and TAED precursors, P=0.05", "value": "increased"}, {"measurement": "BN in the crop", "setting": "[2]", "value": "reducing; also recorded: appears to be reduced by higher dosage"}]}]}
